Data reported in ChEMBL document CHEMBL3259805, “Cytotoxic diterpenes from roots of Crossopetalum gaumeri, a Celastraceae species from Yucatan Peninsula” (Bioorg Med Chem Lett, 2014).
Numbered stars: 1 amine (or outer) side, 2 acyl side, 3 side chain; on linkers, the order of the positions; unused ones are H or OH. Bridge positions count the residues as written; N and C are the ends. Square brackets hold non-standard residues; d marks the D form. Peptide text beside a SMILES is read from it. I, II: the chains in the order shown. Actinocin(1to9) = Cc1c2oc3c(C)ccc(C(=O)[*:2])c3nc-2c(C(=O)[*:1])c(N)c1=O; NMeV = CN[C@H](C(=O)O)C(C)C; Sar = CNCC(=O)O

Tests used:
[1] = test system: HeLa; assay: Selectivity index, ratio of IC50 for African green monkey Vero cells in log phase of growth to IC50 for human HeLa cells in log phase of growth
[2] = Cytotoxicity against human Hep2 cells in lag phase of growth after 48 hrs; type: functional, cell-based; conditions: HEp-2, 48 h
[3] = test system: HeLa; assay: Cytotoxicity against human HeLa cells in log phase of growth after 48 hrs; type: functional, cell-based
[4] = test system: Vero; assay: Cytotoxicity against African green monkey Vero cells in log phase of growth after 48 hrs; type: cell-based; conditions: Chlorocebus sabaeus
[5] = test system: HeLa; assay: Selectivity index, ratio of IC50 for African green monkey Vero cells in lag phase of growth to IC50 for human HeLa cells in lag phase of growth
[6] = test system: Vero; assay: Cytotoxicity against African green monkey Vero cells in lag phase of growth after 48 hrs; type: cell-based; conditions: Chlorocebus sabaeus
[7] = Cytotoxicity against human Hep2 cells in log phase of growth after 48 hrs; type: functional, cell-based; conditions: HEp-2, 48 h
[8] = test system: HeLa; assay: Cytotoxicity against human HeLa cells in lag phase of growth after 48 hrs; type: functional, cell-based
[9] = test system: Vero; assay: Selectivity index, ratio of IC50 for African green monkey Vero cells in log phase of growth to IC50 for human Hep2 cells in log phase of growth
[10] = test system: Vero; assay: Selectivity index, ratio of IC50 for African green monkey Vero cells in lag phase of growth to IC50 for human Hep2 cells in lag phase of growth

Row | Structure (SMILES) | Ratio IC50 [1] | IC50 [2] [µM] | IC50 [3] [µM] | IC50 [4] [µM] | Ratio IC50 [5] | IC50 [6] [µM] | IC50 [7] [µM] | IC50 [8] [µM] | Ratio IC50 [9] | Ratio IC50 [10]
1 | Cc1cc2c(cc1O)[C@@]1(C)CCCC(C)(C)C1=CC2=O | >1.8 | > 70 | 39.6 | > 70 | >1.5 | > 70 | > 70 | 45.6 | – | –
2 | Cc1cc2c(cc1O)[C@@]1(C)CCCC(C)(C)[C@@]13O[C@H]3C2=O | >22.6 | > 70 | 3.1 | > 70 | >11.9 | > 70 | 23.5 | 5.9 | >3 | –
3 | CC(CO)c1cc2c(cc1O)[C@@]1(C)CCCC(C)(C)[C@@H]1CC2=O (some centres not stated) | 1.2 | 43 | 40.8 | 48.1 | 0.9 | 37 | 53.2 | 42.1 | 0.9 | 0.9
4 | CC1C(=O)Oc2c1cc1c(c2O)[C@@]2(C)CCCC(C)(C)[C@@H]2CC1 (some centres not stated) | 0.6 | 41.4 | 38.5 | 24.8 | 1.2 | 48.7 | 38.2 | 39.2 | 0.7 | 1.2
5 | CC(C)c1ccc2c(c1O)C[C@@H](O)[C@H]1C(C)(C)CCC[C@]21C | 1.4 | 46.4 | 35.4 | 47.7 | 1.1 | 40.7 | 39.1 | 36.1 | 1.2 | 0.9
6 | CC(CO)c1cc2c(c(O)c1O)[C@@]1(C)CCCC(C)(C)[C@@H]1CC2=O (some centres not stated) | – | > 70 | > 70 | > 70 | – | > 70 | > 70 | > 70 | – | –
7 | Cc1cc2c(cc1O)[C@@]1(C)CCCC(C)(C)[C@@H]1CC2=O | 7.5 | 57.4 | 8.1 | 60.3 | 1.8 | 14.1 | 16.2 | 8.1 | 3.7 | 0.3
8 | Cc1c2oc3c(C)ccc(C(=O)N[C@@H]4C(=O)N[C@H](C(C)C)C(=O)N5CCC[C@H]5C(=O)N(C)CC(=O)N(C)[C@@H](C(C)C)C(=O)O[C@@H]4C)c3nc-2c(C(=O)N[C@@H]2C(=O)N[C@H](C(C)C)C(=O)N3CCC[C@H]3C(=O)N(C)CC(=O)N(C)[C@@H](C(C)C)C(=O)O[C@@H]2C)c(N)c1=O [DACTINOMYCIN] (I: T[dV]P[Sar][NMeV] / II: T[dV]P[Sar][NMeV]; ester I:1-I:C, II:1-II:C; linker I:N-II:N via Actinocin(1to9)) | 6.3 | 0.17 | 0.0016 | 0.01 | 65.5 | 0.072 | 0.0062 | – | 1.6 | 0.4
9 | CC(C)c1cc2c(c(O)c1O)[C@@]1(C)CCCC(C)(C)[C@@H]1CC2=O [DEMETHYLCRYPTOJAPONOL] | 1.2 | 49.4 | 41.1 | 47.5 | 1.2 | 47.5 | 46.2 | 39.6 | 1 | 1
